The values that follow come from patent USRE39634E1, “Bisarylimidazoly fatty acid amide hydrolase inhibitors” (Bristol-Myers Squibb Company, priority 2001, dated 2007).

Assay [1] concerns animals with a neuropathic injury. Put plainly: Chung model of neuropathic pain. In kind it is in vivo. An excerpt: FIG. 3 illustrates results from the Chung Model used for measuring neuropathic pain. The single asterisk (*) applies when p is less than 0.05 whereas the double asterisk (**) applies when p is less than 0.01. n=9-10.
For a further assay, the system named is animals. Put plainly: Hargreaves Test (acute thermal pain). As to conditions: FIG. 2. In kind it is in vivo. An excerpt: FIG. 2 illustrates results from the Hargreaves Test used for measuring acute thermal pain. The single asterisk (*) applies when p is less than 0.05 whereas the double asterisk (**) applies when p is less than 0.01. n=6.
Another assay concerns the target T1, human FAAH (Homo sapiens, UniProt O00519).
T1 construct: expressed in transfected cells; host or cells: H4 cells stably transfected with human FAAH (Geneticin selection); crude membrane homogenates
T1 sequence (O00519 1-579): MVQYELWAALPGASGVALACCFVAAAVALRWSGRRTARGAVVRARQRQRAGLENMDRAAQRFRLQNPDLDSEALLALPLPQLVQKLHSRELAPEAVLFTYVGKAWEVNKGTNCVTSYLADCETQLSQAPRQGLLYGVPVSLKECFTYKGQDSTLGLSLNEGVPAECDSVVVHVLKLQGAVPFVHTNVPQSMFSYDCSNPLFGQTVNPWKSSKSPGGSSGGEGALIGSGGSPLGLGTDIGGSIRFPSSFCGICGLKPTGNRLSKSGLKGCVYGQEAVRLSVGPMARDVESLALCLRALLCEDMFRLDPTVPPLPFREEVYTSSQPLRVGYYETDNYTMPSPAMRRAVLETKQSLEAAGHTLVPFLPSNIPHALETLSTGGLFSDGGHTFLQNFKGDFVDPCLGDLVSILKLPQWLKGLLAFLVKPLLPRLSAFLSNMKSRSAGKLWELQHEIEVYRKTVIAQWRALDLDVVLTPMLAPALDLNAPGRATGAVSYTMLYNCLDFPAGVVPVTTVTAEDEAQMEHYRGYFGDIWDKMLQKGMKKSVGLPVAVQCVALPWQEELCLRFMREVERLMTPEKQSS
Put plainly: Determination of FAAH activity (membrane homogenates of H4-FAAH cells, [3H]-anandamide hydrolysis). In kind it is biochemical. As to conditions: transfected human FAAH, H4-FAAH cell membranes, 10 μM anandamide, room temperature, one hour.

Another assay relates to rat. Description: Rat formalin test (acute and chronic chemo-induced pain). Type of assay: in vivo. As for the experimental part:
FIG. 1A illustrates results from a rat formalin model used for testing acute chemo-induced pain. The single asterisk (*) applies when p is less than 0.05.
FIG. 1B illustrates results from a rat formalin model used for testing chronic chemo-induced pain. The single asterisk (*) applies when p is less than 0.05.
In FIG. 1., example 1, was active in phase I (acute phase) and phase II (chronic phase) of the rat formalin test. In animals that received 25 mg/kg, i.v, of Example 1, the number of paw flinches was reduced by nearly 40% in the first 10 minutes after administration of formalin. Paw flinches were reduced by approximately 30% over the following 50 minutes.

The structures appear in SMILES notation. Where only a bound is given, the exact number is not on record here.

As a reminder, the IC50 is the concentration that gives 50% inhibition. The low end stands for greater potency in that assay, the high end for weaker potency in that assay. Take `Cc1nc(-c2ccccc2)c(-c2ccccc2)n1CCCCCCNC(=O)Oc1ccccc1F` [Example 1, [6-(2-Methyl-4,5-diphenyl-imidazol-1-yl)-hexyl]-carbamic acid 2-fluoro-phenyl ester]: the “onset of anti-neuropathic effect” value in assay [1] (20 mg/kg, versus 100 mg/kg gabapentin) was “earlier onset of action compared to 100 mg/kg gabapentin”. The “threshold for withdrawal of the injured paw” value in assay [1] (light touch stimulus, FIG. 3) was “increased (toward normal) in a dose-dependent fashion”. For the same molecule, the “latency to paw withdrawal” value in the assay on animals is reported as “increased significantly”. The same molecule showed an IC50 against human FAAH of less than 10 nM. Also, the “reduction of number of paw flinches” value in the assay with rat (25 mg/kg, i.v., first 10 minutes after administration of formalin) was approximately 40%. Further, in the assay on rat (25 mg/kg, i.v., following 50 minutes), the “reduction of paw flinches” value was “approximately 30%”. In the assay with rat (FIG. 1), the “activity in phase I (acute phase) and phase II (chronic phase) of the rat formalin test” value is “active”.

Molecule `Cc1nc(-c2ccccc2)c(-c2ccccc2)n1CCCCCCNC(=O)O/N=C/c1ccc(F)cc1` [Example 47, 4-Fluorobenzaldehyde,O-[6-(2-methyl-4,5-diphenyl-1H-imidazol-1-yl)hexylaminocarbonyl]oxime] gave a 50% inhibitory concentration (IC50) against human FAAH of 10 to 100 nM.

`Cc1nc(-c2ccccc2)c(-c2ccccc2)n1CCCCCC(C)NC(=O)Oc1ccccc1F` (stereo not shown) [Example 71, [1-Methyl-6-(2-methyl-4,5-diphenyl-imidazol-1-yl)-hexyl]-carbamic acid 2-fluoro-phenyl ester] showed a 50% inhibitory concentration (IC50) at human FAAH of less than 10 nM.

As to `Cc1nc(-c2ccccc2)c(-c2ccccc2)n1CCCCCCNC(=O)O/N=C/c1ccc([N+](=O)[O-])cc1` [Example 50, 4-Nitrobenzaldehyde, O-{6-(2-methyl-4,5-diphenyl-1H-imidazol-1-yl)hexylaminocarbonyl]oxime], the IC50 against human FAAH is 10 to 100 nM.

In the case of `Cc1nc(-c2ccccc2)c(-c2ccccc2)n1CCCOc1ccc(NC(=O)Oc2ccccc2F)cc1` [Example 66, {4-[3-(2-Methyl-4,5-diphenyl-imidazol-1-yl)-propoxy]-phenyl}-carbamic acid 2-fluoro-phenyl ester], the IC50 against human FAAH lay in the range of 1000 to 10000 nM.

`Cc1nc(-c2ccccc2)c(-c2ccccc2)n1CCCCCCNC(=O)Oc1ccc(F)cc1` [Example 10, [6-(2-Methyl-4,5-diphenyl-imidazol-1-yl)-hexyl]-carbamic acid 4-fluoro-phenyl ester] gave an IC50 against human FAAH of less than 10 nM.

For `Cc1nc(-c2ccccc2)c(-c2ccccc2)n1CCCCCCCNC(=O)Oc1ccccc1F` [Example 22, [7-(2-Methyl-4,5-diphenyl-imidazol-1-yl)-heptyl]-carbamic acid 2-fluoro-phenyl ester], on human FAAH, the IC50 is less than 10 nM.
